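Test compounds were applied to cells in 96-well plates for 48 hours at 5 doses. Definition used: TGI = concentration required for complete inhibition of growth.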 Bounds are passed on as bounds.

Among the test systems are COLO 205 colon; MDA-MB-435; MDA-MB-231 breast; RPMI-8226 leukemia; T-47D breast; SW-620 colon; ACHN renal; KM12 colon; U251 CNS; SK-MEL-5 melanoma; SK-OV-3 ovarian; OVCAR-5 ovarian; SR leukemia.
What all share (experiment): NCI tumour cell line growth inhibition, 48 h

On to `COc1cc(OC)cc(-n2c(N)c(-c3nc4ccccc4n3C)c3ccc([N+](=O)[O-])cc3c2=O)c1`, for which the TGI with COLO 205 colon, with MDA-MB-435, in the assay with MDA-MB-231 breast, with RPMI-8226 leukemia, in the assay with T-47D breast and with SW-620 colon was more than 100 µM each time. The TGI in the assay with ACHN renal, in the assay on KM12 colon, with U251 CNS and in the assay with SK-MEL-5 melanoma was more than 100 µM in each case.

In the case of `CN1Cc2c(nc(-c3ccc(Br)cc3)c[n+]2[O-])N(C)C1`, the TGI in the assay with SK-OV-3 ovarian, with COLO 205 colon, in the assay on OVCAR-5 ovarian, with SW-620 colon, in the assay with ACHN renal and in the assay on KM12 colon was more than 100 µM each time. In addition, the TGI in the assay with U251 CNS, in the assay on SR leukemia and in the assay with SK-MEL-5 melanoma was more than 100 µM throughout.

With `O=S1(=O)C(c2ccccc2)=C(O)c2ccccc21`, the TGI in the assay with COLO 205 colon, with OVCAR-5 ovarian, in the assay on MDA-MB-435, in the assay with MDA-MB-231 breast, with RPMI-8226 leukemia and in the assay on T-47D breast was more than 100 µM throughout. Besides, the TGI in the assay on SW-620 colon, with ACHN renal, in the assay with KM12 colon, with U251 CNS and in the assay on SK-MEL-5 melanoma was more than 100 µM each time.

For `C[C@@H]1CC[C@@H](C)[C@](C)(CCc2ccoc2)C/C=C\C=C/1C(=O)O`, the TGI with SK-OV-3 ovarian, with COLO 205 colon, in the assay on OVCAR-5 ovarian, in the assay on MDA-MB-231 breast, with SW-620 colon and in the assay on ACHN renal was more than 50 µM each time. In addition, the TGI with KM12 colon, with U251 CNS, with SR leukemia and with SK-MEL-5 melanoma was more than 50 µM each time.

For the compound `C/C(=C\Cc1cc(O)ccc1O)CCc1c(C)c(O)c(O)c(C=O)c1C`, the TGI in the assay on SK-OV-3 ovarian was 95.7 µM; in the assay with COLO 205 colon it was 34.4 µM; with RPMI-8226 leukemia, 80.3 µM; in the assay on SW-620 colon it was more than 100 µM; in the assay with ACHN renal it was 52.8 µM; with KM12 colon, 44.3 µM. For the same compound, the TGI worked out at 59.6 µM with U251 CNS, 51 µM in the assay with SR leukemia and 30.2 µM in the assay with SK-MEL-5 melanoma.

Take `CCOP(=O)(OCC)C1(O)CC(n2cc(C)c(=O)[nH]c2=O)OC1CO` (stereo not given): the TGI with SK-OV-3 ovarian, in the assay on COLO 205 colon, in the assay on OVCAR-5 ovarian, with MDA-MB-435, in the assay on RPMI-8226 leukemia and in the assay with T-47D breast was more than 100 µM in each case. Moreover, the TGI in the assay with SW-620 colon, with ACHN renal, in the assay on KM12 colon, in the assay with U251 CNS, with SR leukemia and with SK-MEL-5 melanoma was more than 100 µM in each case.

For the compound `O=C(COc1ccc(Cl)cc1)N1CCN(C(=O)COc2ccc(Cl)cc2)c2ccccc21`, the TGI in the assay on SK-OV-3 ovarian, in the assay with COLO 205 colon, in the assay on OVCAR-5 ovarian, in the assay with RPMI-8226 leukemia, with SW-620 colon and in the assay on ACHN renal was more than 100 µM each time. For the same compound, the TGI in the assay with KM12 colon and in the assay on U251 CNS was more than 100 µM each time.

In the case of `CC(=O)Nc1ccc(C(=O)N2N=C(C)/C(=C/c3cccc([N+](=O)[O-])c3)C2=O)cc1`, the TGI in the assay on COLO 205 colon, in the assay with OVCAR-5 ovarian, with RPMI-8226 leukemia, in the assay on SW-620 colon, in the assay on ACHN renal and in the assay on KM12 colon was more than 100 µM in each case. For the same compound, the TGI in the assay with SR leukemia and in the assay with SK-MEL-5 melanoma was more than 100 µM each time.

As to `Cc1c(C#N)c2nnn(-c3ccccc3)c(=O)n2c1-c1ccccc1`, the TGI is more than 29.5 µM in the assay with SK-OV-3 ovarian; 3.41 µM with COLO 205 colon; more than 100 µM in the assay on OVCAR-5 ovarian; more than 100 µM in the assay with MDA-MB-231 breast; 14.8 µM with RPMI-8226 leukemia; 87.4 µM with T-47D breast. Also, the TGI in the assay with SW-620 colon is more than 100 µM; in the assay with ACHN renal it was more than 100 µM; in the assay on KM12 colon, 29.1 µM; with U251 CNS, more than 100 µM; in the assay on SR leukemia, 19.3 µM; with SK-MEL-5 melanoma, 16.5 µM.

For `OC(CCN1CCN(CCOC(c2ccccc2)c2ccccc2)CC1)c1ccc(Br)cc1` (stereo not given), the TGI was 27 µM in the assay on SK-OV-3 ovarian; 3.38 µM in the assay with COLO 205 colon; 28.3 µM with OVCAR-5 ovarian; 27 µM in the assay on MDA-MB-435; 25.3 µM with MDA-MB-231 breast; 33.4 µM in the assay on T-47D breast. For the same compound, the TGI in the assay on SW-620 colon turned out to be 44.5 µM; in the assay on ACHN renal, 22.9 µM; in the assay with KM12 colon it was 36.9 µM; in the assay on U251 CNS, 25.1 µM; with SK-MEL-5 melanoma, 12.6 µM.

On to `Cc1occ2c1C(=O)CC1C2[C@@H](O)CC2C(C)(C)CCC[C@]12C` (stereo not given in full), for which the TGI in the assay with SK-OV-3 ovarian, in the assay on COLO 205 colon, with RPMI-8226 leukemia, in the assay on SW-620 colon, in the assay on ACHN renal and in the assay on U251 CNS was more than 100 µM each time. Further, the TGI with SR leukemia and in the assay with SK-MEL-5 melanoma was more than 100 µM throughout.

As to `[N-]=[N+]=NC[C@H]1OCO[C@H](CN=[N+]=[N-])[C@H]2OCCOCCOc3ccccc3OCCOCCO[C@@H]21`, the TGI in the assay on SK-OV-3 ovarian, in the assay on COLO 205 colon, in the assay on MDA-MB-435, with MDA-MB-231 breast, with RPMI-8226 leukemia and in the assay with T-47D breast was more than 100 µM each time. The TGI in the assay with SW-620 colon, in the assay with KM12 colon, in the assay on U251 CNS and with SK-MEL-5 melanoma was more than 100 µM each time.

Take `COC1(C)C(=O)N2C1N(C(=O)OCc1ccccc1)CC2(C)C` (stereo not given): the TGI with COLO 205 colon, with RPMI-8226 leukemia, in the assay on SW-620 colon, with ACHN renal, in the assay with U251 CNS and in the assay on SR leukemia was more than 100 µM throughout. In the assay with SK-MEL-5 melanoma, this compound displayed a TGI of more than 100 µM.

For the origin of these results see PubChem BioAssay (NCI).
